Results as given in patent publication US20250066370A1, “BICYCLIC TRIAZINE DERIVATIVES FOR THE TREATMENT OF CANCER” (DEUTSCHES KREBSFORSCHUNGSZENTRUM, priority 2022, published 2025).

How the values were obtained:
CYCLIN K = CYCLIN K nuclear protein level: immunofluorescence/high content analysis in CAL-120 cells; format: cell-based, human; conditions: 24 h, nuclear CCNK staining intensity, median, read-out: CYCLIN K degradation IF, DC50 - [mol/l] (median)
Method: CAL-120 human breast cancer cells (DSMZ ACC 459) are seeded in 1536-well microtiter plates (800 cells per well) containing 50 nanoL of compounds in Dose-Response. Control wells received DMSO or Example 4. Plates are then incubated for 24 h at 37° C. in an humidified incubator and fixed with 4% PFA for 10 min. Then immunofluorescence (IF) against CYCLIN K (ThermoFisher Scientific CCNK Antibody #PA5-85020, rabbit, 1:200 dilution) is performed using standard IF protocols. Cells are then stained with Hoechst 33342 (Life Technologies, H-1399, 0.1 microg/ml) and imaged on an automated confocal microscopy system (e.g. Perkin Elmer Opera Phenix). Nuclear and cytoplasmic intensity as well as the nuclear/cytoplasmic intensity ratio is determined by automated image analysis using custom generated scripts (MetaXpress). Data is then transferred to Genedata Screener software, normalized to DMSO and control and DC50 values (degrading concentration to achieve 50% reduction of nuclear CCNK staining intensity relative to controls) are reported.

CAL-120-CDK12d-res = assay: Proliferation assay CDK12 degrader resistant CAL-120; format: cell-based, human; conditions: for IC50: Homo sapiens, 96 h, CDK12 degrader resistant CAL-120 cells, 4 days, median, read-out: Prolif-CAL-120-CDK12d-res, IC50 - [mol/l] (median); for Ratio (Prolif-CAL-120-CDK12d-res IC50 / Prolif-CAL-120 IC50): resistant versus parental CAL-120 cells
Description: CDK12-degrader resistant cells were generated by propagation of CAL-120 human breast adenocarcinoma cells (DSMZ ACC-459) and MDA-MB-231 human breast cancer cells (ATCC HTB-26) in presence of increasing concentrations of the CDK12 degrader compound example 4 from WO 2021/116178. Initial concentrations of example 4 were 2.0E-08 M for CAL-120 cells and 4.6E-08 M for MDA-MB-231 cells, corresponding to ca. 2-fold the IC50 of inhibition of the cells in an proliferation assay. After the treated cells recovered and proliferated again the concentration of compound example 4 was increased to 3-fold IC50.
To determine the inhibitory effect of test compounds on proliferation of CAL-120-CDK12d-res, MDA-MB-231-CDK12d-res the cells were plated at a density of 4,000 cells/well in a 96-well multitier plate in 200 microL of their respective growth medium supplemented 10% fetal calf serum. After 24 hours, the cells of one plate (zero-point plate) were stained with crystal violet (see below), while the medium of the other plates was supplemented with the test substances in various concentrations (0 micromol/L, as well as in the range of 0.01-10 micromol/L; the final concentration of the solvent dimethyl sulfoxide was adjusted to 0.1%) using a Tecan HP D300 Digital Dispenser. The cells were incubated for 4 days in the presence of test substances. Cell proliferation was determined by staining the cells with crystal violet: the cells were fixed by adding 20 microL/measuring point of an 11% glutaric aldehyde solution for 15 minutes at room temperature. After three washing cycles of the fixed cells with water, the plates were dried at room temperature. The cells were stained by adding 100 microL/measuring point of a 0.1% crystal violet solution (pH 3.0). After three washing cycles of the stained cells with water, the plates were dried at room temperature. The dye was dissolved by adding 100 microL/measuring point of a 10% acetic acid solution. The extinction was determined by photometry at a wavelength of 595 nm. The change of cell number, in percent, was calculated by normalization of the measured values to the extinction values of the zero-point plate (=0%) and the extinction of the untreated (0 μM) cells (=100%). The IC50 values (inhibitory concentration at 50% of maximal effect) were determined by means of a 4 parameter fit.

CDK2/CyclinE = CDK2/CyclinE (Homo sapiens (Human), UniProt P24941); assay: CDK2/CycE kinase assay (TR-FRET); format: biochemical; conditions: 2 mM ATP (high ATP); median; read-out: CDK2/CyclinE, 2 mM ATP (high ATP), IC50 - [mol/l] (median)
Description: CDK2/CycE-inhibitory activity of compounds of the present invention was quantified employing the CDK2/CycE TR-FRET assay as described in the following paragraphs.
Recombinant fusion proteins of GST and human CDK2 and of GST and human CycE, expressed in insect cells (Sf9) and purified by Glutathion-Sepharose affinity chromatography, were purchased from ProQinase GmbH (Freiburg, Germany). As substrate for the kinase reaction biotinylated peptide biotin-Ttds-YISPLKSPYKISEG (C-terminus in amid form) was used which can be purchased e.g. form the company JERINI peptide technologies (Berlin, Germany).
For the assay 50 nanoL of a 100 fold concentrated solution of the test compound in DMSO was pipetted into a black low volume 384 well microtiter plate or a black 1536 well microtiter plate (both Greiner Bio-One, Frickenhausen, Germany), 2 microL of a solution of CDK2/CycE in aqueous assay buffer [50 millimol/L Tris/HCl PH 8.0, 10 millimol/L MgCl2, 1.0 millimol/L dithiothreitol, 0.1 millimol/L sodium ortho-vanadate, 0.01% (v/v) Nonidet-P40 (Sigma)] were added and the mixture was incubated for 15 min at 22° C. to allow pre-binding of the test compounds to the enzyme before the start of the kinase reaction. Then the kinase reaction was started by the addition of 3 microL of a solution of adenosine-tri-phosphate (ATP, 3.33 millimol/L=>final conc. in the 5 microL assay volume is 2 millimol/L) and substrate (1.25 micromol/L=>final conc. in the 5 microL assay volume is 0.75 micromol/L) in assay buffer and the resulting mixture was incubated for a reaction time of 25 min at 22° C. The concentration of CDK2/CycE was adjusted depending of the activity of the enzyme lot and was chosen appropriate to have the assay in the linear range, typical concentrations were in the range of 10 ng/ml. The reaction was stopped by the addition of 3 microL of a solution of TR-FRET detection reagents (0.333 micromol/L streptavidine-XL665 [Cisbio Bioassays, Codolet, France] and 1.67 nanomol/L anti-RB (pSer807/pSer811)-antibody from BD Pharmingen [#558389] and 2 nanomol/L LANCE EU-W1024 labeled anti-mouse IgG antibody [Perkin-Elmer, product no. AD0077, as an alternative a Terbium-cryptate-labeled anti-mouse IgG antibody from Cisbio Bioassays can be used]) in an aqueous EDTA-solution (167 millimol/L EDTA, 0.2% (w/v) bovine serum albumin in 100 millimol/L HEPES pH 7.5).
The resulting mixture was incubated 1 h at 22° C. to allow the formation of complex between the phosphorylated biotinylated peptide and the detection reagents. Subsequently the amount of phosphorylated substrate was evaluated by measurement of the resonance energy transfer from the Eu-chelate to the streptavidine-XL. Therefore, the fluorescence emissions at 620 nm and 665 nm after excitation at 350 nm was measured in a TR-FRET reader, e.g. a Pherastar (BMG Labtechnologies, Offenburg, Germany) or a Viewlux (Perkin-Elmer). The ratio of the emissions at 665 nm and at […] was taken as the measure for the amount of phosphorylated substrate. The data were normalised (enzyme reaction without inhibitor=0% inhibition, all other assay components but no enzyme=100% inhibition).

FC(F)(F)Oc1ccc(-c2cnc(CNc3nc(N4CCOCC4)nn4c(C(F)(F)F)cnc34)[nH]2)cc1 [Example 8, 2-(morpholin-4-yl)-N-({5-[4-(trifluoromethoxy)phenyl]-1H-imidazol-2-yl}methyl)-7-(trifluoromethyl)imidazo[2,1-f][1,2,4]triazin-4-amine]
DC50 (CYCLIN K): > 1000 nM | IC50 (CAL-120-CDK12d-res): 173 nM | Ratio (Prolif-CAL-120-CDK12d-res IC50 / Prolif-CAL-120 IC50) (CAL-120-CDK12d-res): 1.9 | IC50 (CDK2/CyclinE): > 20000 nM

FC(F)(F)c1ccc(-c2nnc(CNc3nc(N4CCOCC4)nn4c(C(F)(F)F)cnc34)[nH]2)cn1 [Example 20, 2-(morpholin-4-yl)-7-(trifluoromethyl)-N-({5-[6-(trifluoromethyl)pyridin-3-yl]-4H-1,2,4-triazol-3-yl}methyl)imidazo[2,1-f][1,2,4]triazin-4-amine]
DC50 (CYCLIN K): > 1000 nM | IC50 (CAL-120-CDK12d-res): 118 nM | Ratio (Prolif-CAL-120-CDK12d-res IC50 / Prolif-CAL-120 IC50) (CAL-120-CDK12d-res): 1.4 | IC50 (CDK2/CyclinE): > 5710 nM

COc1ccc(-c2nnc(CNc3nc(N4CCOCC4)nc4c(C(F)(F)F)cnn34)[nH]2)cn1 [Example 15, N-{[5-(6-methoxypyridin-3-yl)-4H-1,2,4-triazol-3-yl]methyl}-2-(morpholin-4-yl)-8-(trifluoromethyl)pyrazolo[1,5-a][1,3,5]triazin-4-amine]
DC50 (CYCLIN K): > 1000 nM | IC50 (CDK2/CyclinE): 3120 nM

Cc1ccc(-c2nnc(CNc3nc(N4CCOCC4)nn4c(C(F)(F)F)cnc34)[nH]2)cn1 [Example 23, N-{[5-(6-methylpyridin-3-yl)-4H-1,2,4-triazol-3-yl]methyl}-2-(morpholin-4-yl)-7-(trifluoromethyl)imidazo[2,1-f][1,2,4]triazin-4-amine]
DC50 (CYCLIN K): 124 nM | IC50 (CDK2/CyclinE): 2860 nM

FC(F)(F)c1ccc(-c2nnc(CNc3nc(N4CCOCC4)nn4c(C(F)(F)F)cnc34)[nH]2)cc1 [Example 11, 2-(morpholin-4-yl)-7-(trifluoromethyl)-N-({5-[4-(trifluoromethyl)phenyl]-4H-1,2,4-triazol-3-yl}methyl)imidazo[2,1-f][1,2,4]triazin-4-amine]
DC50 (CYCLIN K): > 1000 nM | IC50 (CDK2/CyclinE): > 20000 nM

FC(F)(F)c1ccc(-c2nnc(CNc3nc(N4CCOCC4)nc4c(C(F)(F)F)cnn34)[nH]2)cc1 [Example 6, 2-(morpholin-4-yl)-8-(trifluoromethyl)-N-({5-[4-(trifluoromethyl)phenyl]-4H-1,2,4-triazol-3-yl}methyl)pyrazolo[1,5-a][1,3,5]triazin-4-amine]
DC50 (CYCLIN K): > 1000 nM | IC50 (CDK2/CyclinE): > 20000 nM

FC(F)(F)Oc1ccc(-c2cnc(CNc3nc(N4CCOCC4)nc4c(C(F)(F)F)cnn34)[nH]2)cc1 [Example 10, 2-(morpholin-4-yl)-N-({5-[4-(trifluoromethoxy)phenyl]-1H-imidazol-2-yl}methyl)-8-(trifluoromethyl)pyrazolo[1,5-a][1,3,5]triazin-4-amine]
DC50 (CYCLIN K): 228 nM | IC50 (CAL-120-CDK12d-res): 139 nM | Ratio (Prolif-CAL-120-CDK12d-res IC50 / Prolif-CAL-120 IC50) (CAL-120-CDK12d-res): 2.0 | IC50 (CDK2/CyclinE): > 20000 nM
